The source of these data is patent US12667568B2, “Compositions and methods for the treatment and diagnosis of cancer” (The General Hospital Corporation, priority 2020, dated 2026).

For assay [1], the system named is SKOV3 subcutaneous xenograft tumors. Nature of the assay: SKOV3 xenograft with Cisplatin. The conditions noted are these: Cisplatin 5 mg/kg into tumor twice per week for 3 weeks, Lv-shTRDMT1 versus Lv-NC. Format: in vivo, BALB/c nude mice. As to the method:
FIGS. 5A-5E show reduced TRDMT1 expression renders Cisplatin sensitization in vivo. (FIG. 5A) Lv-shTRDMT1 or Lv-NC transfected SKOV3 cells were subcutaneously injected into BALB/c nude mice, a week after injection, Cisplatin (5 mg/kg) or saline was injected into the center of the xenograft tumors twice per week for 3 consecutive weeks. (FIG. 5B) Representative images of tumors in xenografts transfected with LV-shTRDMT1/LV-NC with saline or Cisplatin treatment. (FIG. 5C) Tumor size of SKOV3 subcutaneous xenograft tumors (n=6, Mean±SD). (FIG. 5D) WB for TRDMT1 in tumor tissues collected from mice in each group (Tissues from six tumors in the same group were mixed into one sample). (FIG. 5E) IHC of TRDMT1 and KI-67 expression in ovarian cancer tissues of patients who were platinum-sensitive (PFS>6) and —resistant (PFS<6) Staining was assessed and scored on a scale of 0 (<5% staining) to 4 (>75% staining) in G. Quantification of IHC staining (n=38, PFS>6, n=24; PFS<6, n=14) was shown. […]
When mice developed palpable tumors (about a week after injection), cDDP (5 mg/kg) or saline were then injected into the center of the xenograft tumors twice per week for 3 consecutive weeks. […] PFS was calculated from the time of surgery to the time of progression or recurrence. […]

The subject of assay [2] is HST578, MBAMD231, HCC1937, HCC1954 cancer cells. Nature of the assay: Cell survival assay, TRDMT1i alone (Example 19). The conditions noted are these: HCC1954, HRD, high SYCP2. Format: cell-based. As to the method: FIGS. 14A-14C show TRDMT1i alone reduce cancer cell survival in a dose-dependent manner. (FIG. 14A) Survival rate of HR proficient (HR+) HST578 cancer cells with and without siBRCA1 and/or TRDMT1i YW-1842 at indicated dose. The survival rate of these cells was analyzed (n=3, Mean±SD). (FIG. 14B) Survival rate of MBAMD231 (HR+) and HCC1937 (HRD) cells. The survival rate of these cells was analyzed (n=3, Mean±SD). (FIG. 14C) Cell survival rate in different cancer cell lines via colony-forming assay with the treatment of Imatinib at indicated dose (n=3, mean+/−S.D.). Cell lines are listed in order with the expression level from SYCP2high to SYCP2low.
Cells were seeded in each 6-cm dish and cultured as described above. They were treated with drugs with indicated dose in medium after seeding. After 7-10 days, colonies were fixed and stained with 0.3% crystal violet in methanol, and the number of colonies was counted manually.

Assay [3] deals with MD-MBA-231 xenograft tumors. Kind of assay: MD-MBA-231 xenograft with PARPi. Format: in vivo, BALB/c nude mice. As for the experimental part: FIGS. 9A-9G show SYCP2 is required for efficient homologous recombination. (FIG. 9A) Cell survival rate of HeLa and MDAMB231 via colony forming assay with the treatment of […], 4 μm, 6 μM, 8 μM, 16 μM of Olaparib (n=3, mean+/−S.D.). Western blot of SYCP2 overexpression in HeLa and MDA-MB-231 is shown in the left. (FIG. 9B) Cell survival rate of HeLa via colony forming assay with the treatment of 1 μM, 2 μm, 3 μM of Olaparib (n=3, mean+/−S.D.). Western blot of SYCP2 knockdown in Hela is shown in the left. (FIG. 9C) Scheme of Xenograft design using intraperitoneal injection of MBA-MD-231 into successful developed mouse model with virus-associated SYCP2 knockdown and control groups is shown in the left. PARPi was injected every 2 days after day 7. The graph is shown the recorded tumor size of each tested group with PARPi treatment or saline at each treatment day. (FIG. 9D). Numbers of SYCP2 IR induced foci (IRIF) colocalizing with γH2AX in MDAMB231 and HeLa cells. Cells were fixed and counted for foci numbers after 2 Gy IR followed up indicated recovery time (t=0 hr, 12 hr, 24 hr, and 48 hr) (n=30, mean+/−S.D). (FIG. 9E). […] Fold increase of mean intensity at sites of irradiation compared to mean intensity of nucleus expression is quantified (n=5, mean+/−SD). […] Numbers of RAD51 IRIF in siCtrl and siSYCP2 treated MDAMB231 and U2OS cells after 2 Gy IR and 1 hour recovery were counted (n=20, +/SD). […]

The subject of assay [4] is ZR-75-30, MCF7, HCC-1954, HCC-1937, MDA-MB-468 and MDA-MB-231. Nature of the assay: Colony formation assay with Olaparib in six breast cancer cell lines. In kind it is cell-based. As to the method:
FIGS. 10A-10E show SYCP2 promotes RAD51 localization to DSBs independently of BRCA1. (FIG. 10A) The schematic mechanism of HR in the absence of BRCA1/2 for RAD51 loading with the help of SYCP2. RAD51 IRIF in BRCA1 mutant breast cancer cell lines after 2 Gy IR and 1 hour recovery with or without siSYCP2. Numbers of RAD51 foci per cell in siCtrl and siSYCP2 were quantified (n=20). The frameshift mutation of BRCA1 in cell line HCC1954 and HCC1937 is listed in the right. (FIG. 10B) The frequency of BRCA1 and SYCP2 IRIF colocalizing with γ-H2AX in U2OS cells after 2 Gy IR and recovery of 1 hour. Western blot of BRCA1 and SYCP2 knockdown and RAD51 expression level was shown in the left. (FIG. 10C) Comparison of SYCP2 RNA expression (CCLE database) in BRCA1/2 mutant and wildtype breast cancer cell lines. The analysis is normalized to Fragments Per Kilobase Million (FPKM). (FIG. 10D) Plot of correlation between SYCP2 expression and IC50 of Olaparib in groups of BRCA WT vs. mutant cells (left), high BRCA1 vs. low BRCA1 (right). p values and r values were determined by using Pearson correlated analysis. […]
Approximately 400 cells were replanted on 6-cm dishes 48 h after siRNA transfection. […] Colonies were stained with 0.3% crystal violet/methanol and counted 9 days after treatments. Each experiment was performed at least 3 times and the standard errors were calculated and indicated in the graphs. […]

In another assay the test system is breast tumors. Kind of assay: Sacituzumab Govitecan (IMMU-132) clinical trial, outcome by SYCP2 IHC. Format: in vivo. The conditions noted are these: 16 patients. The source says: FIGS. 13A-13D show high SYCP2 expression associates with poor prognosis and drug resistance in patients. (FIG. 13A). Summarization of subtypes of breast cancer patients in a Sacituzumab Govitecan (IMMU-132) clinical trial group. Patients were divided to high SYCP2 group and low SYCP2 group by IHC of SYCP2. IHC staining of SYCP2 expression in patient tumor tissues from the IMMU-132 clinical trial group. Representative images were shown. Cutoff value is median. Numbers of patients' response as Partial Response (PR) or Stable Disease (SD) in low SYCP2 group and high SYCP2 group in IMMU clinical trial are shown. (FIG. 13B) Kaplan-Meier curves of patients' overall survival and progression free survival in FIG. 13A. (FIG. 13C) Overall survival curves of 1095 patients from TCGA. Cutoff value is median. R value and p value were calculated by COX survival analysis. […]
The collected tumor specimens and adjacent normal tissue samples were fixed in 4% parafoiinaldehyde, stored in PBS. After sucrose infiltration, samples were filled with OTC and ready for cryosection. […] After deparaffinization and rehydration, sections were blocked and incubated with antibody against SYCP2 (PAS-67554, 1:20), Ki-67 (sc-23900, Santa Cruz, 1:200), and then detected using the Dako Envision two-step method of immunohistochemistry (Carpinteria, CA, USA). […] All IHC staining was scored independently by 2 pathologists. […]

`N.N.[Cl][Pt][Cl]` [cisplatin]: the “xenograft tumor size, Lv-shTRDMT1 tumors” value in assay [1] was “grew statistically smaller”.

On to `O=C(c1cc(Cc2n[nH]c(=O)c3ccccc23)ccc1F)N1CCN(C(=O)C2CC2)CC1` [Olaparib], for which, in assay [2], the “response of HCC1954 to PARPi” value was “relatively resistant”. Also, the “tumor growth, control tumors” value in assay [3] (siControl tumors, intraperitoneal, every 2 days after day 7, 23 days) is “reduced the growth of control tumors”. Moreover, in assay [3] (siSYCP2 tumors versus control tumors), the “tumor growth, SYCP2 knockout tumors” value is “reduced the growth of SYCP2 knockout tumors more than control tumors”. In addition, the “PARPi sensitivity, BRCA1 mutant versus non-mutant” value in assay [4] (among four cell lines expressing high levels of SYCP2) is reported as “more sensitive”. Besides, the “PARPi sensitivity, low versus high SYCP2” value in assay [4] (among four cell lines without BRCA mutations) is “much more sensitive”.

On to Sacituzumab Govitecan, for which the “response rate in patients with SYCP2high tumors” value with breast tumors (SYCP2high versus SYCP2low by IHC) was “reduced rate of partial response (PR) but an increased rate of stable disease (SD)”. Moreover, the “survival in patients with high SYCP2 expression” value in the assay on breast tumors (high SYCP2 expression) was “shorter overall survival and progression-free survival”.
